Two molecules from patent US5290776A, “Azole derivatives” (Imperial Chemical Industries, PLC, priority 1991, dated 1994) can be followed below.

The target of one assay is T1, A2 Adenosine receptor (Rattus norvegicus, UniProt P30543).
T1 construct: membrane preparations derived from the rat phaeochromocytoma cell line PC 12; host or cells: PC 12 (rat phaeochromocytoma), membranes
Nature of the assay: A2 Adenosine receptor affinity test ([3H]-NECA displacement, PC12 membranes). It counts as binding. The settings on record: displacement of [3H]-NECA from rat PC12 cell membranes. On the procedure: The membrane preparation is obtained as follows: Frozen pellets of PC12 cells are washed twice with ice cold, buffered, physiological saline and the cells recovered by centrifugation (1500 G) at 3° C. The separated cells are then suspended in hypotonic solution (distilled water), allowed to stand on ice for 30 minutes and are then carefully homogenized using a standard high-speed homogeniser with periodic ice-cooling to obtain a fine suspension. […] The mixture is then incubated at 37° C. After 20 minutes, the reaction is terminated by dilution with ice-cold buffer and transfer onto ice. The material obtained containing the cell membranes is recovered by centrifugation and washed by resuspension in buffer and recentrifugation. The pellet produced is then resuspended in ice-cold buffer using a hand-driven homogenizer. The resultant membrane suspension is frozen and stored under liquid nitrogen until required.
After incubation, the samples are rapidly filtered over glass-fibre mats and the filter mats are washed to remove non-receptor-bound radioligand. Receptor-bound radioligand entrapped on the filter mats is then determined by liquid scintillation counting. […] The specific binding (defined as the difference between the total binding and the non-specific binding) in the presence of the particular test compound is determined and compared with the control value.

The target of assay [1] is T2, adenosine receptor known as A1 (Cavia porcellus, UniProt P47745).
T2 construct: Atrial pairs are obtained from guinea-pigs; from tissue; host or cells: guinea-pig atrial pairs (Dunkin Hartley)
T2 sequence (P47745 1-326): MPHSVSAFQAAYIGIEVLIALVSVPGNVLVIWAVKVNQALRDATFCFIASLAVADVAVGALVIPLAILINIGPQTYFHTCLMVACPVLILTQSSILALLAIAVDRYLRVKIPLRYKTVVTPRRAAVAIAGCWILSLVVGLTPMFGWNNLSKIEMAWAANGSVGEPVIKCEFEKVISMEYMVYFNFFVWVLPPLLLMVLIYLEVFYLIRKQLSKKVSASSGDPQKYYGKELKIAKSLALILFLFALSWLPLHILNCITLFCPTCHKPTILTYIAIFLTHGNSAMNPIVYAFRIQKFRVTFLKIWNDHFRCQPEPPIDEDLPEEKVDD
Nature of the assay: Guinea-pig Atrial Bradycardic Test. It counts as cell-based. The settings on record: antagonism of bradycardic effect of 2-chloroadenosine, beating guinea-pig atrial preparation; read-out: pA2 (converted). On the procedure: (c) Guinea-pig Atrial Bradycardic Test
The spontaneously beating atria are then placed under a resting tension of 1 g and allowed to equilibrate for 50 minutes with continuous overflow. Overflow is then stopped and adenosine deaminase (1 Unit/ml) added to prevent the accumulation of endogenously produced adenosine. […] After washout during 30 minutes, adenosine deaminase is readministered to the bath which is allowed to equilibrate for 15 minutes. A 10^-5 M solution of the test compound in DMSO is then added to the bath which is left to incubate for 30 minutes. Any effect on the beating rate due to the test compound is noted before the dose response curve to 2-chloroadenosine is repeated. Compounds which are adenosine antagonists attenuate the 2-chloroadenosine response.
Test compounds are assessed by comparing dose response curves to 2-chloroadenosine alone with those obtained in the presence of the compound. Competitive adenosine antagonists produce a parallel shift in the 2-chloroadenosine dose response curve. […] The pA2 is then obtained in an analogous manner to that referred to in (b) above.

Assay [2] relates to adenosine receptor known as A2. Nature of the assay: Guinea-pig Aortic Constriction Test. It counts as cell-based. The settings on record: antagonism of adenosine attenuation of phenylephrine induced constriction, guinea-pig aortic ring. An excerpt:
(b) Guinea-pig Aortic Constriction Test
This test has been described by Collis et al. (British J. Pharmacology, 1989, 97, 1274-1278) and involves the assessment of the ability of a test compound to antagonise the attenuatory effect of adenosine on phenylephrine induced constriction of a guinea-pig aortic ring preparation, an effect mediated via the adenosine receptor known as A2.
The aortic ring preparation is obtained as follows:
Sections (3-5 mm) of guinea pig thoracic aorta (from Dunkin Hartley strain, 250-400 g males) are mounted in organ baths containing oxygenated Krebs solution (95% O2 : 5% CO2) at 37° C. [The nucleoside transport inhibitor, dipyridamole (10 μM) is present in the Krebs solution]. The isometric tension development is recorded and the tissue placed under a resting tension of 1 g and allowed to equilibrate for 1 hour. […] Adenosine is next added cumulatively (10^-7 M to 10^-3 M) and the evoked relaxation is measured. […]
Test compounds are assessed by plotting the percentage relaxation observed against the logarithm of the adenosine concentration, competitive adenosine antagonism producing a parallel shift in the standard adenosine concentration/relaxation (dose response) curve. […] The pA2 value, which is an estimate of the concentration of antagonist to give a dose ratio of 2, may also be calculated using a standard computation technique.

Assay [3] deals with vasodilation response during twitch contraction of skeletal muscle. Nature of the assay: Anaesthetised cat exercise hyperaemia test. It counts as in vivo. The settings on record: 10 mg.kg^-1. On the procedure: (f) Anaesthetised cat exercise hyperaemia test
This test involves assessment of the effect of a test compound to antagonise the vasodilation response which occurs during twitch contraction of skeletal muscle. The vasodilation is mediated partly by the release of endogenous adenosine from the contracting skeletal muscle.
Cats (2.4-3.6 kg) are anaesthetised with sodium pentobarbitone (50 mg.kg^-1 ip). The following blood vessels are catheterized: left jugular vein (for infusion of anaesthetic, at approximately […] as a 6 mg.ml^-1 solution in isotonic saline), right external jugular vein (for administration of drugs and test compounds), right common carotid artery (for measurement of systemic arterial blood pressure and pulse rate) and right brachial artery (for withdrawal of blood).
Blood flow to the left hind limb is measured with an electromagnetic flow probe around the left external iliac artery. The whole of the left hind limb is made to contract at 3 Hz for 20 minutes duration by stimulating the sciatic and femoral nerves. Active tension produced by the extensor digitorum longus and peroneous longus muscles is measured isometrically with a force transducer. Exercise is repeated twice within the same animal, in either the absence or presence of the test compound. Test compounds are assessed for their ability to reduce the vasodilation during skeletal muscle contraction.

T1 sequence (P30543 whole entry): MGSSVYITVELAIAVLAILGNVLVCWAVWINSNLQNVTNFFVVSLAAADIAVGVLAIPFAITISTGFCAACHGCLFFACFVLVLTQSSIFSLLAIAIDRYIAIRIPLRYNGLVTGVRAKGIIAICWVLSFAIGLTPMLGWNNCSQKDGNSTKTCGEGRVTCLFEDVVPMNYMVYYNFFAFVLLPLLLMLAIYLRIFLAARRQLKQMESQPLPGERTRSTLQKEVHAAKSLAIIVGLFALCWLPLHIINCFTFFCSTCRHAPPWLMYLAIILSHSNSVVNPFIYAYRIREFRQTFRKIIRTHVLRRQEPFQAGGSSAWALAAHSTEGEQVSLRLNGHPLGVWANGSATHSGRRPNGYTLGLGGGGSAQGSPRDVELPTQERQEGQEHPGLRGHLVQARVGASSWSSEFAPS

With `Nc1nc(-c2ccccc2)nc2nc(-c3ccco3)nn12` [Example 1, 7-amino-2-(2-furyl)-5-phenyl-[1,2,4]-triazolo[1,5-a][1,3,5]triazine], at A2 Adenosine receptor, the IC50 is roughly 25.1 nM. Moreover, the Kb in assay [1] is 39.8 nM.
Turning to `Cn1c(=O)c2[nH]cnc2n(C)c1=O` [1,3-dimethylxanthine], in assay [2], the pA2 entry is listed as “about 5”. For the same molecule, the “inhibition of vasodilation during skeletal muscle contraction” value in assay [3] is on record as “significant inhibition”.
